Data: ChEMBL document CHEMBL1151390, “Microbial Transformations of Natural Antitumor Agents. 20. Glucosylation of Viridi-catumtoxin” (J Nat Prod, 1982)
Calls of active or inactive are those of the source. No cut-off for these calls is given here.

Test system: P388
Assay: Antitumor activity against mouse P388 cells
Assay type: functional, cell-based

## COc1cc(O)c2c(O[C@@H]3O[C@H](CO)[C@@H](O)[C@H](O)[C@H]3O)c3c(c4c2c1[C@@]1(C4)C(C)=CCCC1(C)C)[C@H](O)[C@@]1(O)CC(O)=C(C(N)=O)C(=O)[C@@]1(O)C3=O
  Activity: inactive
